From ChEMBL document CHEMBL1201862, “PubChem BioAssay data set” (2004)
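Interpolation was linear, between the two tested concentrations surrounding the appropriate level; five concentrations were tested over 48 hours in 96-well plates. GI50 marks 50% less growth.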 The source made the active and inactive calls. Rule as the data show it: active = GI50 up to about 1.1 µM and inactive = higher.

Experiments:
Assay in all cases: NCI tumour cell line growth inhibition, 48 h
786-0 = test system: 786-0
CCRF-CEM = test system: CCRF-CEM
COLO 205 = test system: COLO 205
EKVX = test system: EKVX
HCC 2998 = test system: HCC 2998
HL-60 = test system: HL-60
HOP-62 = test system: HOP-62
M14 = test system: M14
Malme-3M = test system: Malme-3M
NCI-H23 = test system: NCI-H23
NCI-H522 = test system: NCI-H522
OVCAR-5 = test system: OVCAR-5
OVCAR-8 = test system: OVCAR-8
RPMI-8226 = test system: RPMI-8226
SF-268 = test system: SF-268
SF-295 = test system: SF-295
SF-539 = test system: SF-539

Row | Structure (SMILES) | GI50 (786-0) | GI50 (CCRF-CEM) | GI50 (COLO 205) | GI50 (EKVX) | GI50 (HCC 2998) | GI50 (HL-60) | GI50 (HOP-62) | GI50 (M14) | GI50 (Malme-3M) | GI50 (NCI-H23) | GI50 (NCI-H522) | GI50 (OVCAR-5) | GI50 (OVCAR-8) | GI50 (RPMI-8226) | GI50 (SF-268) | GI50 (SF-295) | GI50 (SF-539)
1 | CN(C)CCCNC(=O)CNC(=O)c1cc(NC(=O)c2cc(NC(=O)c3cc(NC(=O)CCNC(=O)c4cc(NC(=O)c5cc(NC(=O)c6nccn6C)cn5C)cn4C)cn3C)cn2C)cn1C | > 100 µM (inactive) | 24.5 µM (inactive) | > 100 µM (inactive) | > 100 µM (inactive) | > 100 µM (inactive) | 43 µM (inactive) | > 100 µM (inactive) | > 100 µM (inactive) | > 100 µM (inactive) | > 100 µM (inactive) | > 100 µM (inactive) | > 100 µM (inactive) | > 100 µM (inactive) | > 100 µM (inactive) | > 100 µM (inactive) | > 100 µM (inactive) | > 100 µM (inactive)
2 | CC(C)=CC1CC(C)C2(CCC3(C)CC4C(C(=O)CC4(C)O)/C(C=O)=C\CC32)O1 (stereo not given) | 0.021 µM (active) | 0.0179 µM (active) | 0.0596 µM (active) | 0.154 µM (active) | 0.178 µM (active) | < 0.0173 µM (active) | 0.126 µM (active) | 0.134 µM (active) | 0.131 µM (active) | 0.0757 µM (active) | 0.028 µM (active) | 0.14 µM (active) | 0.0432 µM (active) | 0.0255 µM (active) | 0.136 µM (active) | 0.191 µM (active) | 0.0933 µM (active)
3 | Nc1c(C(=O)O)nnc2cc(Cl)c(Cl)cc12 | > 100 µM (inactive) | > 100 µM (inactive) | > 100 µM (inactive) | > 100 µM (inactive) | > 100 µM (inactive) | 57 µM (inactive) | > 100 µM (inactive) | > 100 µM (inactive) | > 100 µM (inactive) | > 100 µM (inactive) | > 100 µM (inactive) | > 100 µM (inactive) | > 100 µM (inactive) | > 100 µM (inactive) | > 100 µM (inactive) | > 100 µM (inactive) | > 100 µM (inactive)
4 | O=c1c(-c2c(-c3ccccc3)oc3ccc(Cl)cc3c2=O)c(-c2ccccc2)oc2ccc(Cl)cc12 | > 100 µM (inactive) | > 100 µM (inactive) | > 100 µM (inactive) | > 43.9 µM (inactive) | > 100 µM (inactive) | 0.0302 µM (active) | > 39.7 µM (inactive) | > 100 µM (inactive) | > 100 µM (inactive) | > 100 µM (inactive) | > 100 µM (inactive) | > 100 µM (inactive) | > 74.1 µM (inactive) | > 100 µM (inactive) | > 49.9 µM (inactive) | > 51.8 µM (inactive) | > 100 µM (inactive)
5 | COc1ccc(C2SCC(=O)N2c2ccc(-c3ccc(-n4c(-c5ccccc5)nc5ccccc5c4=O)cc3)cc2)cc1 (stereo not given) | 36.1 µM (inactive) | 28.6 µM (inactive) | 39 µM (inactive) | > 100 µM (inactive) | 30.1 µM (inactive) | 54.3 µM (inactive) | 69.8 µM (inactive) | 85.7 µM (inactive) | 48.2 µM (inactive) | 68.9 µM (inactive) | 30.3 µM (inactive) | 28.5 µM (inactive) | 78.7 µM (inactive) | 21.6 µM (inactive) | > 100 µM (inactive) | 47 µM (inactive) | 74.8 µM (inactive)
6 | O=C1CC(NC(=O)C(F)(F)F)c2c1csc2Br (stereo not given) | 26.5 µM (inactive) | 33.6 µM (inactive) | > 100 µM (inactive) | 14.8 µM (inactive) | > 100 µM (inactive) | 53.1 µM (inactive) | > 100 µM (inactive) | 88.3 µM (inactive) | 18.8 µM (inactive) | > 100 µM (inactive) | 54.6 µM (inactive) | 2.24 µM (inactive) | > 100 µM (inactive) | 32.6 µM (inactive) | 0.678 µM (active) | 5.77 µM (inactive) | 74.1 µM (inactive)
7 | COc1ccc(C(C#N)NC23CC4CC(CC(C4)C2)C3)cc1 (stereo not given) | > 100 µM (inactive) | > 100 µM (inactive) | > 100 µM (inactive) | > 100 µM (inactive) | > 100 µM (inactive) | 88.5 µM (inactive) | > 100 µM (inactive) | > 100 µM (inactive) | > 100 µM (inactive) | > 100 µM (inactive) | > 100 µM (inactive) | > 100 µM (inactive) | > 100 µM (inactive) | > 100 µM (inactive) | > 100 µM (inactive) | > 100 µM (inactive) | > 100 µM (inactive)
8 | COC(=O)c1cc(NC(=O)Cc2c[nH]c3ccccc23)cn1C | > 100 µM (inactive) | 45.3 µM (inactive) | 82 µM (inactive) | > 100 µM (inactive) | 68.1 µM (inactive) | > 100 µM (inactive) | 88.1 µM (inactive) | > 100 µM (inactive) | 57.7 µM (inactive) | > 100 µM (inactive) | 36.1 µM (inactive) | > 100 µM (inactive) | 66.5 µM (inactive) | 21.3 µM (inactive) | 88.5 µM (inactive) | > 100 µM (inactive) | > 100 µM (inactive)
9 | O=C1CCCC/C1=C(\Br)I | 19.6 µM (inactive) | 1.77 µM (inactive) | 15.1 µM (inactive) | 18.7 µM (inactive) | 4.95 µM (inactive) | 2.12 µM (inactive) | 19.2 µM (inactive) | 6.78 µM (inactive) | 5.5 µM (inactive) | 10.1 µM (inactive) | 1.56 µM (inactive) | 18.8 µM (inactive) | 14.5 µM (inactive) | 2.86 µM (inactive) | 9.62 µM (inactive) | 17.5 µM (inactive) | 18.8 µM (inactive)
10 | O=C1CSC(c2ccccc2[N+](=O)[O-])N1c1ccc(-c2ccc(-n3c(-c4ccccc4)nc4ccccc4c3=O)cc2)cc1 (stereo not given) | > 100 µM (inactive) | 46.2 µM (inactive) | > 100 µM (inactive) | > 100 µM (inactive) | > 100 µM (inactive) | > 100 µM (inactive) | > 100 µM (inactive) | > 100 µM (inactive) | > 100 µM (inactive) | > 10 µM (inactive) | > 100 µM (inactive) | 71.3 µM (inactive) | > 100 µM (inactive) | 90.2 µM (inactive) | 45.8 µM (inactive) | > 100 µM (inactive) | 58.6 µM (inactive)
11 | CC1=CC(=O)N(n2c(-c3ccccc3)n[nH]c2=O)C1=O | > 100 µM (inactive) | 43.9 µM (inactive) | > 100 µM (inactive) | > 100 µM (inactive) | > 100 µM (inactive) | > 100 µM (inactive) | > 100 µM (inactive) | > 100 µM (inactive) | > 100 µM (inactive) | > 100 µM (inactive) | > 100 µM (inactive) | > 100 µM (inactive) | > 100 µM (inactive) | > 100 µM (inactive) | > 100 µM (inactive) | > 100 µM (inactive) | > 100 µM (inactive)
12 | CC(=O)OCC1OC(n2c(=O)[nH]c(=O)c3sccc32)C(Br)C1OC(C)=O (stereo not given) | > 100 µM (inactive) | > 100 µM (inactive) | > 100 µM (inactive) | > 100 µM (inactive) | > 100 µM (inactive) | > 100 µM (inactive) | > 100 µM (inactive) | > 100 µM (inactive) | > 100 µM (inactive) | > 100 µM (inactive) | > 100 µM (inactive) | > 100 µM (inactive) | > 100 µM (inactive) | > 100 µM (inactive) | > 100 µM (inactive) | > 100 µM (inactive) | > 100 µM (inactive)
13 | O=C1C(N2CCN(c3ccccn3)CC2)=C(Cl)C(=O)c2ncccc21 | 1.78 µM (inactive) | 1.32 µM (inactive) | 1.96 µM (inactive) | > 10 µM (inactive) | > 4.63 µM (inactive) | 0.105 µM (active) | > 10 µM (inactive) | 1.98 µM (inactive) | 1.3 µM (inactive) | 1.85 µM (inactive) | 0.142 µM (active) | > 10 µM (inactive) | > 4.45 µM (inactive) | 0.353 µM (active) | > 6.1 µM (inactive) | > 10 µM (inactive) | > 10 µM (inactive)
14 | COC(=O)[C@@H](COC(=O)/C=C/c1ccc(OC(C)=O)c(OC(C)=O)c1)NC(=O)/C=C/c1ccc(OC(C)=O)c(OC(C)=O)c1 | 14.8 µM (inactive) | 9.98 µM (inactive) | 15.7 µM (inactive) | 16.3 µM (inactive) | 21.8 µM (inactive) | 18.7 µM (inactive) | 25.6 µM (inactive) | 14.6 µM (inactive) | 6.52 µM (inactive) | 28.1 µM (inactive) | 13.2 µM (inactive) | 45.8 µM (inactive) | 22.5 µM (inactive) | 38.2 µM (inactive) | 29.9 µM (inactive) | – | 19 µM (inactive)
15 | CC(=O)c1cc2c(s1)C(=O)c1ccsc1C2=O | 1.92 µM (inactive) | 0.335 µM (active) | 19.1 µM (inactive) | 1.87 µM (inactive) | 1.74 µM (inactive) | 0.0442 µM (active) | 0.491 µM (active) | 0.28 µM (active) | 0.146 µM (active) | 0.167 µM (active) | 0.16 µM (active) | 0.74 µM (active) | 0.373 µM (active) | 3.85 µM (inactive) | 0.301 µM (active) | 0.16 µM (active) | 0.27 µM (active)
16 | COS(C)(=O)=O [METHANESULFONIC ACID METHYL ESTER] | > 2 µM (inactive) | > 2 µM (inactive) | > 2 µM (inactive) | > 2 µM (inactive) | > 2 µM (inactive) | > 2 µM (inactive) | > 2 µM (inactive) | > 2 µM (inactive) | > 2 µM (inactive) | > 2 µM (inactive) | > 2 µM (inactive) | > 2 µM (inactive) | > 2 µM (inactive) | > 2 µM (inactive) | > 2 µM (inactive) | – | > 2 µM (inactive)
